Laboratory results reported in US20120004244A1, “Bis Aromatic Compounds for Use as LTC4 Synthase Inhibitors” (BIOLIPOX AB, priority 2009, published 2012).

target: T1, Recombinant human LTC4 synthase (Homo sapiens, UniProt Q16873); assay: LTC4 synthase in vitro assay (LTA4 to LTC4, HTRF detection); format: biochemical; details: not given
T1 construct: made in house; host or cells: Pichia pastoris ('Piccia pastoralis' [sic])
T1 sequence (Q16873 1-150): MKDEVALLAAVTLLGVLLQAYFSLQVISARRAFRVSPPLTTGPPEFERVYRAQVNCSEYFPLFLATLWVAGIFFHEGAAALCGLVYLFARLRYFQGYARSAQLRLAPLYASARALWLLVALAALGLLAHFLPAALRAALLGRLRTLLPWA
Procedure: In the assay, LTC4 synthase catalyses the reaction where the substrate LTA4 is converted to LTC4. Recombinant human LTC4 synthase is expressed in Piccia pastoralis and the purified enzyme is dissolved in 25 mM tris-buffer pH 7.8 supplemented with 0.1 mM glutathione (GSH) and stored at −80° C. The assay is performed in phosphate buffered saline (PBS) pH 7.4 and 5 mM GSH in 384-well plates.
The following is added chronologically to each well:
1.48 μL LTC4 synthase in PBS with 5 mM GSH. The total protein concentration in this solution is 0.5 μg/mL. 2. 1 μL inhibitor in DMSO (final concentration 10 μM). 3. Incubation of the plate at room temperature for 10 min. 4. 1 μL LTA4 (final concentration 2.5 μM). 5. Incubation of the plate at room temperature for 5 min. 6. 10 μL of the incubation mixture is analysed using homogenous time resolved fluorescent (HTRF) detection.

Question: For CN(c1ccc(C(C)(C)C)cc1)c1ccc(C(=O)c2ccc(Oc3ccccc3)c(C(=O)O)c2)nc1 [1:17, 5-{5-[(4-tert-Butylphenyl)(methyl)amino]picolinoyl}-2-phenoxybenzoic acid], which IC50 is on record?
Answer: 1310 nM

Question: How did the IC50 turn out when CN(c1ccc(Cl)cc1)c1ccc(C(=O)c2ccc(NS(=O)(=O)c3cccs3)c(C(=O)O)c2)nc1 [4:3, 5-{5-[(4-Chlorophenyl)(methyl)amino]picolinoyl}-2-(2-thienylsulfonamido)benzoic acid] was run?
Answer: 40 nM

Question: How did the IC50 turn out when O=C(c1ccc(-n2nc(C(F)(F)F)cc2-c2ccccc2)c(C(=O)O)c1)c1ccc(N(CC2CC2)c2ccc(Cl)cc2)cn1 [18:1, 5-{5-[(4-Chlorophenyl)(cyclopropylmethyl)amino]picolinoyl}-2-(5-phenyl-3-trifluoro-methylpyrazol-1-yl)benzoic acid] was run?
Answer: 297 nM

Question: For COc1ccc(OC)c(C(=O)Nc2ccc(C(=O)c3ccc(N(C)c4ccc(Cl)cc4)cn3)cc2C(=O)O)c1 [3:21, 5-{5-[(4-Chlorophenyl)(methyl)amino]picolinoyl}-2-(2,5-dimethoxybenzamido)-benzoic acid], which IC50 is on record?
Answer: 25 nM

Question: Which IC50 does the source give for CN(c1ccc(Cl)cc1)c1ccc(C(=O)c2ccc(NC3CCS(=O)(=O)CC3)c(C(=O)O)c2)nc1 [2:20, 5-{5-[(4-Chlorophenyl)(methyl)amino]picolinoyl}-2-(1,1-dioxotetrahydrothiopyran-4-ylamino)benzoic acid] here?
Answer: 658 nM

Question: For COc1cccc(C(=O)Nc2ccc(C(=O)c3ccc(N(C)c4ccccc4)cn3)cc2C(=O)O)c1 [3:33, 2-(3-Methoxybenzamido)-5-{5-[(methyl)(phenyl)amino]picolinoyl}benzoic acid], which IC50 is on record?
Answer: 226 nM

Question: Which IC50 does the source give for CN(c1ccc(Cl)cc1)c1ccc(C(=O)c2ccc(C(=O)C3CCCCC3)c(C(=O)O)c2)nc1 [5:18, 5-{5-[(4-Chlorophenyl)(methyl)amino]picolinoyl}-2-cyclohexylcarbonylbenzoic acid] here?
Answer: 246 nM

Question: O=C(c1ccc(Oc2ccccc2F)c(C(=O)O)c1)c1ccc(N(CC2CC2)c2ccc(Cl)cc2)cn1 [1:38, 5-{5-[(4-Chlorophenyl)(cyclopropylmethyl)amino]picolinoyl}-2-(2-fluorophenoxy)benzoic acid] was tested. Which IC50 did it give?
Answer: 79 nM

Question: For COc1cccc(C(=O)c2ccc(C(=O)c3ccc(N(C)c4ccc(Cl)cc4)cn3)cc2C(=O)O)c1 [5:7, 5-{5-[(4-Chlorophenyl)(methyl)amino]picolinoyl}-2-(3-methoxybenzoyl)benzoic acid], which IC50 is on record?
Answer: 36 nM

Question: For COc1ccc(C(=O)c2ccc(C(=O)c3ccc(N(CC4CC4)c4ccc(Cl)cc4)cn3)cc2C(=O)O)cc1 [5:4], which IC50 is on record?
Answer: 29 nM

Question: How did the IC50 turn out when CN(c1ccc(Cl)cc1)c1ccc(C(=O)c2ccc(-n3nc(-c4cccc(Cl)c4)cc3C(F)(F)F)c(C(=O)O)c2)nc1 [18:5, 5-{5-[(4-Chlorophenyl)(methyl)amino]picolinoyl}-2-[3-(3-chlorophenyl)-5-trifluoromethylpyrazol-1-yl]benzoic acid] was run?
Answer: 116 nM

Question: Which IC50 does the source give for C=CCN(c1ccc(C(=O)c2ccc(Oc3ccccc3)c(C(=O)O)c2)nc1)c1ccc(F)c(F)c1 [1:21, 5-{5-[(Allyl)(3,4-difluorophenyl)amino]picolinoyl}-2-phenoxybenzoic acid] here?
Answer: 295 nM

Question: Which IC50 does the source give for CN(c1ccc(Cl)cc1)c1ccc(C(=O)c2ccc(N3CCC(C(C)(C)C)CC3)c(C(=O)O)c2)nc1 [2:5, 2-(4-tert-Butylpiperidin-1-yl)-5-{5-[(4-chlorophenyl)(methyl)amino]picolinoyl}benzoic acid] here?
Answer: 3000 nM

Question: With CN(c1ccc(Cl)cc1)c1ccc(C(=O)c2ccc(-n3nc(C(F)(F)F)cc3-c3ccccc3)c(C(=O)O)c2)nc1 [18:3] as the molecule, how does the IC50 read?
Answer: 177 nM

Question: With CN(c1ccc(Cl)cc1)c1ccc(C(=O)c2ccc(NC3CCCCC3)c(C(=O)O)c2)nc1 [2:4, 5-{5-[(4-Chlorophenyl)(methyl)amino]picolinoyl}cyclohexylaminobenzoic acid] as the molecule, how does the IC50 read?
Answer: 140 nM

Question: CN(c1ccc(Cl)cc1)c1ccc(C(=O)c2ccc(NC(=O)c3ccc4c(c3)OCO4)c(C(=O)O)c2)nc1 [3:6, 5-{5-[(4-Chlorophenyl)(methyl)amino]picolinoyl}-2-(3,4-methylenedioxy-benzamido)benzoic acid] was tested. Which IC50 did it give?
Answer: 11 nM

Question: Which IC50 does the source give for COc1cccc(CNc2ccc(C(=O)c3ccc(N(C)c4ccc(Cl)cc4)cn3)cc2C(=O)O)c1 [2:7, 5-{5-[(4-Chlorophenyl)(methyl)amino]picolinoyl}-2-(3-methoxybenzylamino)benzoic acid] here?
Answer: 133 nM

Question: With CN(c1ccc(Cl)cc1)c1ccc(C(=O)c2ccc(NC3CCC(C(C)(C)C)CC3)c(C(=O)O)c2)nc1 (stereo not shown) [2:2, 2-(4-tert-Butylcyclohexylamino)-5-{5-[(4-chlorophenyl)(methyl)amino]picolinoyl}-benzoic acid] as the molecule, how does the IC50 read?
Answer: 66 nM

Question: CN(c1ccc(Cl)cc1)c1ccc(C(=O)c2ccc(NC(=O)c3ccc(OC(F)(F)F)cc3)c(C(=O)O)c2)nc1 [3:11, 5-{5-[(4-Chlorophenyl)(methyl)amino]picolinoyl}-2-(4-trifluoromethoxy-benzamido)benzoic acid] was tested. Which IC50 did it give?
Answer: 44 nM

Question: How did the IC50 turn out when COc1ccc(Nc2ccc(C(=O)c3ccc(N(C)c4ccc(Cl)cc4)cn3)cc2C(=O)O)cc1 [2:13, 5-{5-[(4-Chlorophenyl)(methyl)amino]picolinoyl}-2-(4-methoxyphenylamino)benzoic acid] was run?
Answer: 160 nM

Question: How did the IC50 turn out when CN(c1ccc(Cl)cc1)c1ccc(C(=O)c2ccc(NCc3cccnc3)c(C(=O)O)c2)nc1 [2:9, 5-{5-[(4-Chlorophenyl)(methyl)amino]picolinoyl}-2-[(3-pyridylmethyl)amino]benzoic acid] was run?
Answer: 466 nM

Question: With CN(c1ccc(Cl)cc1)c1ccc(C(=O)c2ccc(Nc3ccc(C(O)(C(F)(F)F)C(F)(F)F)cc3)c(C(=O)O)c2)nc1 [2:17, 5-{5-[(4-Chlorophenyl)(methyl)amino]picolinoyl}-2-[4-(1,1,1,3,3,3-hexafluoro-2-hydroxy-2-propyl)phenylamino]benzoic acid] as the molecule, how does the IC50 read?
Answer: 138 nM

Question: For N#Cc1ccccc1Oc1ccccc1Oc1ccc(C(=O)c2ccc(N(CC3CC3)c3ccc(Cl)cc3)cn2)cc1C(=O)O [1:32, 5-{5-[(4-Chlorophenyl)(cyclopropylmethyl)amino]picolinoyl}-2-[2-(2-cyanophenoxy)phenoxy]benzoic acid], which IC50 is on record?
Answer: 20 nM

Question: Which IC50 does the source give for CN(c1ccc(Cl)cc1)c1ccc(C(=O)c2ccc(Oc3cccc(Cl)c3)c(C(=O)O)c2)nc1 [1:3, 2-(3-Chlorophenoxy)-5-{5-[(4-chlorophenyl)(methyl)amino]picolinoyl}benzoic acid] here?
Answer: 124 nM

Question: With O=C(c1ccc(Oc2ccccc2)c(C(=O)O)c1)c1ccc(OCc2ccc(Cl)c(Cl)c2)cn1 [11:9, 5-[5-(3,4-Dichlorobenzyloxy)picolinoyl]-2-phenoxybenzoic acid] as the molecule, how does the IC50 read?
Answer: 69 nM

Question: For CN(c1ccc(Cl)cc1)c1ccc(C(=O)c2ccc(NS(=O)(=O)c3ccc(C(F)(F)F)cc3)c(C(=O)O)c2)nc1 [4:4, 5-{5-[(4-Chlorophenyl)(methyl)amino]picolinoyl}-2-(4-trifluoromethylphenylsulfon-amido)benzoic acid], which IC50 is on record?
Answer: 43 nM

Question: For CN(c1ccc(Cl)cc1)c1ccc(C(=O)c2ccc(C(=O)c3ccccc3)c(C(=O)O)c2)nc1 [5:1, 2-Benzoyl-5-{5-[(4-chlorophenyl)(methyl)amino]picolinoyl}benzoic acid], which IC50 is on record?
Answer: 72 nM

Question: How did the IC50 turn out when CN(c1ccc(Cl)cc1)c1ccc(C(=O)c2ccc(-c3ccccc3Cl)c(C(=O)O)c2)nc1 [21:3, 2′-Chloro-4-{5-[(4-chlorophenyl)(methyl)amino]picolinoyl}biphenyl-2-carboxylic acid] was run?
Answer: 349 nM

Question: Which IC50 does the source give for COc1ccc(C(=O)Nc2ccc(C(=O)c3ccc(N(CC4CC4)c4ccc(Cl)cc4)cn3)cc2C(=O)O)c(OC)c1 [3:22, 5-{5-[(4-Chlorophenyl)(cyclopropylmethyl)amino]picolinoyl}-2-(2,4-dimethoxy-benzamido)benzoic acid] here?
Answer: 16 nM

Question: CN(c1ccc(Cl)cc1)c1ccc(C(=O)c2ccc(NC(=O)c3ccccc3)c(C(=O)O)c2)nc1 [3:3, 2-Benzamido-5-{5-[(4-chlorophenyl)(methyl)amino]picolinoyl}benzoic acid] was tested. Which IC50 did it give?
Answer: 34 nM

Question: For O=C(c1ccc(-n2nncc2-c2ccccn2)c(C(=O)O)c1)c1ccc(N(CC2CC2)c2ccc(Cl)cc2)cn1 [17:6, 5-{5-[(4-Chlorophenyl)(cyclopropylmethyl)amino]picolinoyl}-2-(5-(pyridin-2-yl)-1,2,3-triazol-1-yl)benzoic acid], which IC50 is on record?
Answer: 107 nM

Question: Which IC50 does the source give for O=C(c1ccc(Oc2ccccc2)c(C(=O)O)c1)c1ccc(OCc2cccc(C(F)(F)F)c2)cn1 [11:5, 2-Phenoxy-5-[5-(3-trifluoromethylbenzyloxy)picolinoyl]benzoic acid] here?
Answer: 181 nM

Question: CN(c1ccc(Cl)cc1)c1ccc(C(=O)c2ccc(NC3CCSCC3)c(C(=O)O)c2)nc1 [2:19, 5-{5-[(4-Chlorophenyl)(methyl)amino]picolinoyl}-2-(4-tetrahydrothiopyranylamino)benzoic acid] was tested. Which IC50 did it give?
Answer: 149 nM

Question: How did the IC50 turn out when CN(c1ccc(Cl)cc1)c1cnc(C(=O)c2ccc(Oc3ccc(F)cc3)c(C(=O)O)c2)nc1 [10:1, 5-{5-[(4-Chlorophenyl)(methyl)amino]pyrimidine-2-carbonyl}-2-(4-fluorophenoxy)-benzoic acid] was run?
Answer: 154 nM

same assay, conditions: 5 min; total concentration of title compound in the assay 10 μM

Question: Which inhibition at 10 µM does the source give for CN(c1ccc(C(C)(C)C)cc1)c1ccc(C(=O)c2ccc(Oc3ccccc3)c(C(=O)O)c2)nc1 [1:17, 5-{5-[(4-tert-Butylphenyl)(methyl)amino]picolinoyl}-2-phenoxybenzoic acid] here?
Answer: 96%

Question: CN(c1ccc(Cl)cc1)c1ccc(C(=O)c2ccc(NS(=O)(=O)c3cccs3)c(C(=O)O)c2)nc1 [4:3, 5-{5-[(4-Chlorophenyl)(methyl)amino]picolinoyl}-2-(2-thienylsulfonamido)benzoic acid] was tested. Which inhibition at 10 µM did it give?
Answer: 99%

Question: How did the inhibition at 10 µM turn out when C=CCN(c1ccc(C(=O)c2ccc(Oc3ccccc3)c(C(=O)O)c2)nc1)c1ccc(F)c(F)c1 [1:21, 5-{5-[(Allyl)(3,4-difluorophenyl)amino]picolinoyl}-2-phenoxybenzoic acid] was run?
Answer: 99%

Question: With CN(c1ccc(Cl)cc1)c1ccc(C(=O)c2ccc(Oc3cccc(Cl)c3)c(C(=O)O)c2)nc1 [1:3, 2-(3-Chlorophenoxy)-5-{5-[(4-chlorophenyl)(methyl)amino]picolinoyl}benzoic acid] as the molecule, how does the inhibition at 10 µM read?
Answer: 98%

Question: For CN(c1ccc(Cl)cc1)c1ccc(C(=O)c2ccc(NS(=O)(=O)c3ccc(C(F)(F)F)cc3)c(C(=O)O)c2)nc1 [4:4, 5-{5-[(4-Chlorophenyl)(methyl)amino]picolinoyl}-2-(4-trifluoromethylphenylsulfon-amido)benzoic acid], which inhibition at 10 µM is on record?
Answer: 100%

Question: CN(c1ccc(Cl)cc1)c1cnc(C(=O)c2ccc(Oc3ccc(F)cc3)c(C(=O)O)c2)nc1 [10:1, 5-{5-[(4-Chlorophenyl)(methyl)amino]pyrimidine-2-carbonyl}-2-(4-fluorophenoxy)-benzoic acid] was tested. Which inhibition at 10 µM did it give?
Answer: 97%
